From the NIST ThermoML archive (doi:10.1016/j.jct.2016.12.033)
Numbers after ± are expanded uncertainties.

What was measured:
[1] = 101.3 kPa, Liquid; for viscosity: Capillary tube (Ostwald / Ubbelohde) method; for mass density: Pycnometric method
[2] = mn = molality of the nth substance listed, in mol/kg; conditions: 101.3 kPa, Liquid, m2 = 0; for viscosity: Capillary tube (Ostwald / Ubbelohde) method; for mass density: Pycnometric method

viscosity ([1]; 275.15 K)	mass density ([1]; 275.15 K)	viscosity ([1]; 277.15 K)	mass density ([1]; 277.15 K)	viscosity ([1]; 279.15 K)	mass density ([1]; 279.15 K)	viscosity ([2]; 275.15 K)	mass density ([2]; 275.15 K)	viscosity ([2]; 277.15 K)	mass density ([2]; 277.15 K)	viscosity ([2]; 279.15 K)	mass density ([2]; 279.15 K)	Structure (SMILES)
1.674 ± 0.035 mPa·s	999.94 ± 0.28 kg/m3	1.567 ± 0.032 mPa·s	999.97 ± 0.28 kg/m3	1.472 ± 0.03 mPa·s	999.94 ± 0.28 kg/m3	–	–	–	–	–	–	O [water]
–	–	–	–	–	–	1.674 ± 0.035 mPa·s	999.94 ± 0.28 kg/m3	1.567 ± 0.032 mPa·s	999.97 ± 0.28 kg/m3	1.472 ± 0.03 mPa·s	999.94 ± 0.27 kg/m3	O [water] + Cc1ncc(CO)c(CO)c1O.Cl
–	–	–	–	–	–	1.674 ± 0.035 mPa·s	999.94 ± 0.28 kg/m3	1.567 ± 0.032 mPa·s	999.97 ± 0.28 kg/m3	1.472 ± 0.03 mPa·s	999.94 ± 0.28 kg/m3	O [water] + Cc1ncc(C[n+]2csc(CCO)c2C)c(N)n1.Cl.[Cl-]
–	–	–	–	–	–	1.674 ± 0.035 mPa·s	999.94 ± 0.29 kg/m3	1.567 ± 0.032 mPa·s	999.97 ± 0.28 kg/m3	1.472 ± 0.03 mPa·s	999.94 ± 0.28 kg/m3	O [water] + O=C1O[C@H]([C@@H](O)CO)C([O-])=C1O.[Na+]
